Source: US20130096170A1 (priority 2011, published 2013)
Read-outs that look alike come from different tables or passages of the source.

Tests used:
[1] = clinical; details: human, plasma, intravenous
[2] = tested on: pediatric subjects 2 to <17 years
[3] = tested on: neonates ≥28 to ≤44 weeks gestational age
[4] = Group I, Dose Level 1, LD 0.25/CD 0.2 μg/kg/hr, N = 8, safety population
[5] = Group I, Dose Level 2, LD 0.50/CD 0.4 μg/kg/hr, N = 6, safety population
[6] = Group I, Dose Level 3, LD 1.00/CD 0.7 μg/kg/hr, N = 6, safety population
[7] = Group I, Dose Level 4, LD 1.00/CD 2.00 μg/kg/hr, N = 6, safety population
[8] = Group II, Dose Level 1, LD 0.25/CD 0.2 μg/kg/hr, N = 8, safety population
[9] = Group II, Dose Level 2, LD 0.50/CD 0.4 μg/kg/hr, N = 8, safety population
[10] = Group II, Dose Level 3, LD 1.00/CD 0.7 μg/kg/hr, N = 9, safety population
[11] = Group II, Dose Level 4, LD 1.00/CD 2.00 μg/kg/hr, N = 8, safety population
[12] = age Group I, dose level 2 (Dex 0.1), N = 6

Structure (SMILES): Cc1cccc([C@H](C)c2cnc[nH]2)c1C [dexmedetomidine]
- clearance ([1]; CL, Geo. Mean of individual Bayesian estimates, 1 month-<6 months (n = 14)): 116 mL/min
- clearance ([1]; CL, Geo. Mean of individual Bayesian estimates, 2 y-<6 y (n = 26)): 265 mL/min
- clearance ([1]; CL, Geo. Mean of individual Bayesian estimates, 6 months-<12 months (n = 16)): 136 mL/min
- clearance ([1]; CL, Geo. Mean of individual Bayesian estimates, 6 y-<17 y (n = 29)): 408 mL/min
- clearance ([1]; CL, Geo. Mean of individual Bayesian estimates, 12 months-<24 months (n = 13)): 179 mL/min
- clearance ([1]; CL, Geo. Mean of individual Bayesian estimates, 28 weeks GA-<1 month (n = 28)): 38 mL/min
- clearance ([1]; CL, elimination clearance (population mean), final population PK model, Examples 5, 3, 1 and 7): 178 mL/min
- Vd ([1]; Volume of Distribution, Geo. Mean of individual Bayesian estimates, 1 month-<6 months (n = 14)): 17.3 L
- Vd ([1]; Volume of Distribution, Geo. Mean of individual Bayesian estimates, 2 y-<6 y (n = 26)): 33.7 L
- Vd ([1]; Volume of Distribution, Geo. Mean of individual Bayesian estimates, 6 months-<12 months (n = 16)): 21.2 L
- Vd ([1]; Volume of Distribution, Geo. Mean of individual Bayesian estimates, 6 y-<17 y (n = 29)): 51.6 L
- Vd ([1]; Volume of Distribution, Geo. Mean of individual Bayesian estimates, 12 months-<24 months (n = 13)): 23.9 L
- Vd ([1]; Volume of Distribution, Geo. Mean of individual Bayesian estimates, 28 weeks GA-<1 month (n = 28)): 14.1 L
- clearance ([1]; Weight-Adjusted CL, Geometric Mean (individual Bayesian estimates), Including Additional 11 Subjects, 1 month-<6 months (n = 14)): 20.2 mL/min/kg
- clearance ([1]; Weight-Adjusted CL, Geometric Mean (individual Bayesian estimates), Including Additional 11 Subjects, 2 y-<6 y (n = 26)): 18.5 mL/min/kg
- clearance ([1]; Weight-Adjusted CL, Geometric Mean (individual Bayesian estimates), Including Additional 11 Subjects, 6 months-<12 months (n = 16)): 18.5 mL/min/kg
- clearance ([1]; Weight-Adjusted CL, Geometric Mean (individual Bayesian estimates), Including Additional 11 Subjects, 6 y-<17 y (n = 29)): 13.3 mL/min/kg
- clearance ([1]; Weight-Adjusted CL, Geometric Mean (individual Bayesian estimates), Including Additional 11 Subjects, 12 months-<24 months (n = 13)): 17.7 mL/min/kg
- clearance ([1]; Weight-Adjusted CL, Geometric Mean (individual Bayesian estimates), Including Additional 11 Subjects, 28 weeks GA-<1 month (n = 28)): 15.5 mL/min/kg
- Vd ([1]; Weight-Adjusted Vd, Geometric Mean (individual Bayesian estimates), Including Additional 11 Subjects, 1 month-<6 months (n = 14)): 3.02 L/kg
- Vd ([1]; Weight-Adjusted Vd, Geometric Mean (individual Bayesian estimates), Including Additional 11 Subjects, 2 y-<6 y (n = 26)): 2.35 L/kg
- Vd ([1]; Weight-Adjusted Vd, Geometric Mean (individual Bayesian estimates), Including Additional 11 Subjects, 6 months-<12 months (n = 16)): 2.89 L/kg
- Vd ([1]; Weight-Adjusted Vd, Geometric Mean (individual Bayesian estimates), Including Additional 11 Subjects, 6 y-<17 y (n = 29)): 1.68 L/kg
- Vd ([1]; Weight-Adjusted Vd, Geometric Mean (individual Bayesian estimates), Including Additional 11 Subjects, 12 months-<24 months (n = 13)): 2.35 L/kg
- Vd ([1]; Weight-Adjusted Vd, Geometric Mean (individual Bayesian estimates), Including Additional 11 Subjects, 28 weeks GA-<1 month (n = 28)): 5.74 L/kg
- Drug-related TEAE: Bradycardia [2, 4]: 0 n (%)
- Drug-related TEAE: Hypertension [2, 4]: 0 n (%)
- Drug-related TEAE: Hypotension [2, 4]: 0 n (%)
- Drug-related TEAE: Sedation [2, 4]: 0 n (%)
- Number of Drug-related TEAE [2, 4]: 0
- Subjects with at least 1 Drug-Related TEAE [2, 4]: 0 n (%)
- Drug-related TEAE: Bradycardia [2, 5]: 0 n (%)
- Drug-related TEAE: Hypertension [2, 5]: 0 n (%)
- Drug-related TEAE: Hypotension [2, 5]: 0 n (%)
- Drug-related TEAE: Sedation [2, 5]: 0 n (%)
- Number of Drug-related TEAE [2, 5]: 0
- Subjects with at least 1 Drug-Related TEAE [2, 5]: 0 n (%)
- Drug-related TEAE: Bradycardia [2, 6]: 1 (16.7) n (%)
- Drug-related TEAE: Hypertension [2, 6]: 1 (16.7) n (%)
- Drug-related TEAE: Hypotension [2, 6]: 0 n (%)
- Drug-related TEAE: Sedation [2, 6]: 0 n (%)
- Number of Drug-related TEAE [2, 6]: 2
- Subjects with at least 1 Drug-Related TEAE [2, 6]: 1 (16.7) n (%)
- Drug-related TEAE: Bradycardia [2, 7]: 1 (16.7) n (%)
- Drug-related TEAE: Hypertension [2, 7]: 0 n (%)
- Drug-related TEAE: Hypotension [2, 7]: 1 (16.7) n (%)
- Drug-related TEAE: Sedation [2, 7]: 2 (33.3) n (%)
- Number of Drug-related TEAE [2, 7]: 4
- Subjects with at least 1 Drug-Related TEAE [2, 7]: 4 (66.7) n (%)
- Drug-related TEAE: Bradycardia [2, 8]: 0 n (%)
- Drug-related TEAE: Chills [2, 8]: 0 n (%)
- Drug-related TEAE: Hypertension [2, 8]: 0 n (%)
- Drug-related TEAE: Sedation [2, 8]: 0 n (%)
- Number of Drug-related TEAE [2, 8]: 0
- Subjects with at least 1 Drug-Related TEAE [2, 8]: 0 n (%)
- Drug-related TEAE: Bradycardia [2, 9]: 0 n (%)
- Drug-related TEAE: Chills [2, 9]: 0 n (%)
- Drug-related TEAE: Hypertension [2, 9]: 0 n (%)
- Drug-related TEAE: Sedation [2, 9]: 0 n (%)
- Number of Drug-related TEAE [2, 9]: 0
- Subjects with at least 1 Drug-Related TEAE [2, 9]: 0 n (%)
- Drug-related TEAE: Bradycardia [2, 10]: 1 (11.1) n (%)
- Drug-related TEAE: Chills [2, 10]: 1 (11.1) n (%)
- Drug-related TEAE: Hypertension [2, 10]: 1 (11.1) n (%)
- Drug-related TEAE: Sedation [2, 10]: 0 n (%)
- Number of Drug-related TEAE [2, 10]: 3
- Subjects with at least 1 Drug-Related TEAE [2, 10]: 2 (22.2) n (%)
- Drug-related TEAE: Bradycardia [2, 11]: 0 n (%)
- Drug-related TEAE: Chills [2, 11]: 0 n (%)
- Drug-related TEAE: Hypertension [2, 11]: 3 (37.5) n (%)
- Drug-related TEAE: Sedation [2, 11]: 1 (12.5) n (%)
- Number of Drug-related TEAE [2, 11]: 4
- Subjects with at least 1 Drug-Related TEAE [2, 11]: 4 (50.0) n (%)
- treatment-related TEAE: chills ([2]; human, in vivo): 1 subjects
- treatment-related TEAE: hypotension ([2]; human, in vivo): 1 subjects
- deaths ([2]; safety population): No deaths
- TEAE: Anger, subjects [3, 12]: 1 (16.7%)
- TEAE: Blood bilirubin unconjugated increased, subjects [3, 12]: 1 (16.7%)
- TEAE: Bradycardia, subjects [3, 12]: 1 (16.7%)
- TEAE: Cardiac disorders, subjects [3, 12]: 1 (16.7%)
- TEAE: Cardio-respiratory arrest, subjects [3, 12]: 1 (16.7%)
- TEAE: General disorders and administration site conditions, subjects [3, 12]: 2 (33.3%)
- TEAE: Haematuria, subjects [3, 12]: 1 (16.7%)
- TEAE: Hepatobiliary disorders, subjects [3, 12]: 1 (16.7%)
- TEAE: Hyperbilirubinaemia, subjects [3, 12]: 1 (16.7%)
- TEAE: Hyperglycaemia, subjects [3, 12]: 1 (16.7%)
- TEAE: Hypocalcaemia, subjects [3, 12]: 1 (16.7%)
- TEAE: Hypoproteinaemia, subjects [3, 12]: 1 (16.7%)
- TEAE: Infections and infestations, subjects [3, 12]: 1 (16.7%)
- TEAE: Infusion site extravasation, subjects [3, 12]: 1 (16.7%)
- TEAE: Investigations, subjects [3, 12]: 2 (33.3%)
- TEAE: Oedema, subjects [3, 12]: 1 (16.7%)
- TEAE: Oxygen saturation decreased, subjects [3, 12]: 1 (16.7%)
- TEAE: Psychiatric disorders, subjects [3, 12]: 1 (16.7%)
- TEAE: Renal and urinary disorders, subjects [3, 12]: 1 (16.7%)
- TEAE: Sepsis, subjects [3, 12]: 1 (16.7%)
- TEAE: Metabolism and nutrition disorders, subjects ([3]; human, in vivo): 3 (50.0%)
- TEAE: Number of Events ([3]; human, in vivo): 18
- patients with adverse events ([3]; human, in vivo): 67%
- subjects with treatment-emergent adverse effects assessed as related to treatment ([3]; human, in vivo): 2 subjects
- safety and tolerability ([3]; in vivo): safe and well tolerated
- severe treatment-emergent adverse effects ([3]; in vivo): no severe
